Results as given in the CATMoS acute toxicity set (Mansouri et al. 2021).

assay: GHS categories as the set defines them, by LD50: 1 up to 5, 2 up to 50, 3 up to 300, 4 up to 2000, 5 above 2000 mg/kg; conditions: rat; in vivo; po
Description: […]The data set underlying the modeling effort for this project was initially compiled by NICEATM and U.S. EPA’s CCTE. Briefly, LD50 data were collected from rat acute oral systemic toxicity tests, including limit tests, ranges/confidence intervals, and discrete LD50 values. The full data set included 21,200 LD50 entries for 15,688 substances. […] Data were reviewed to ensure that LD50 values with obvious errors in the extracted data such as unit conversion errors (e.g., comma and decimal separator misplacements) were either fixed or removed. After this review, 16,209 LD50 values remained. Many of the chemicals represented had multiple LD50 entries, requiring that a single representative value per Chemical Abstracts Service Registry Number (CASRN) identifier be defined to facilitate modeling efforts. Based on ATWG feedback and to define the representative LD50 as a protective value while accounting for the distribution across multiple LD50s, the median of the lowest quartile was computed using only discrete LD50 values (omitting limit test data and range and confidence interval data). A detailed summary of the data compilation is available online on the NICEATM webpage dedicated to the collaborative modeling project (NTP 2020).
[…][…] For categorical designations, limit test and range/confidence interval LD50 data were integrated wherever possible. As such, the number of chemicals with end point values/calls varies across the modeling end points (Table 3) based on whether chemicals had representative LD50 values and/or other data. If a chemical had both, the representative value was used to determine categorical calls rather than limit test data. Some data were useable only for certain end points and categories depending on the thresholds. For example, ranges that spanned multiple hazard categories were considered only for the binary (very toxic/nontoxic) end points and omitted from rendering a determination for hazard category assignment.
[…]The final data set comprising 11,992 chemicals was split into training and evaluation sets […], respectively. This process was performed semirandomly by ordering chemicals based on the five end points (categorical and continuous LD50 values) and partitioning every fourth record into the evaluation set accordingly. This approach was taken to ensure an equivalent distribution of the LD50 values and the different hazard categories between the training and the evaluation sets without supervised sampling of the chemicals based on structures (Figure 1A). The sources of the chemical structures were also kept equivalent between the two sets, with chemical structures obtained from DSSTox, being the highest quality, representing over 75% of each set (Figure 1B).

Q: With CC(C)C(=O)c1ccc2cc(CC(=O)O)ccc2c1 as the molecule, how does the GHS category read?
A: 5

Q: Which GHS category does the source give for Cc1cc(C)c(O)c(-c2cc(C)cc(C)c2O)c1 here?
A: 5

Q: For COc1ccc2cc3[n+](cc2c1OC)CCc1cc2c(cc1-3)OCO2, which GHS category is on record?
A: 5

Q: For CON=C(C(=O)N[C@@H]1C(=O)N2C(C(=O)OC(C)OC(C)=O)=C(COC(N)=O)CS[C@H]12)c1ccco1 (some centres not stated), which GHS category is on record?
A: 5

Q: Which GHS category does the source give for Cc1ccc(C(=O)Oc2ccc(C(O)CNC(C)(C)C)cc2OC(=O)c2ccc(C)cc2)cc1 (configuration not stated) here?
A: 5

Q: For CC(C)=CCN(CC=C(C)C)CCC(C#N)(Cc1cccc2ccccc12)C(C)C (configuration not stated), which GHS category is on record?
A: 4

Q: For NC(=O)NNC(N)=O, which GHS category is on record?
A: 5

Q: With NC(=O)OCC(COC(N)=O)c1ccccc1 as the molecule, how does the GHS category read?
A: 5

Q: Which GHS category does the source give for O=C(O)C(=O)C(O)C(O)C(O)CO (configuration not stated) here?
A: 5

Q: For CN1C(=O)COc2cc(C(=O)c3ccc(Cl)cc3)ccc21, which GHS category is on record?
A: 5

Q: With CCCN(CCC)c1c([N+](=O)[O-])cc(S(N)(=O)=O)cc1[N+](=O)[O-] as the molecule, how does the GHS category read?
A: 5

Q: With CSc1nc2cc(Cl)ccc2o1 as the molecule, how does the GHS category read?
A: 5

Q: With CS/C(=N\O)C(=O)N(C)C as the molecule, how does the GHS category read?
A: 5

Q: For O=c1cc(-c2ccccc2)c2ccc(OCCCN3CCC(c4ccccc4)CC3)cc2[nH]1, which GHS category is on record?
A: 4

Q: With COc1ccc(OCCCCN2CCN(CCc3cc(OC)c(OC)c(OC)c3)CC2)c(C2Sc3ccccc3N2C(C)=O)c1 (configuration not stated) as the molecule, how does the GHS category read?
A: 4

Q: For CCCCc1ccc2[nH]c(NC(=O)OC)nc2c1, which GHS category is on record?
A: 2

Q: For CCC(C#N)(CCN(CC=C(C)C)CC=C(C)C)c1cccc2ccccc12 (configuration not stated), which GHS category is on record?
A: 4

Q: With CCCCCCCCCCCCCCCC(=O)Nc1cc(Cl)c(CC)c(Cl)c1O as the molecule, how does the GHS category read?
A: 5

Q: For COc1cc(NC(=O)c2cc3ccccc3cc2O)c(OC)cc1Cl, which GHS category is on record?
A: 5

Q: For CCC1(C2=CCCCCC2)C(=O)NC(=O)NC1=O, which GHS category is on record?
A: 5

Q: For CC(C)=CCCC(C)C=O (configuration not stated), which GHS category is on record?
A: 5

Q: For CCCCCCCCCCCCCCCCOC(=O)OOC(=O)OCCCCCCCCCCCCCCCC, which GHS category is on record?
A: 5

Q: For CCSC(=O)/C=C(C)/C=C/CC(C)CCCC(C)(C)OC (configuration not stated), which GHS category is on record?
A: 5

Q: With CCCCCCC(C)(C)c1cc(O)c2c(c1)OC(C)(C)[C@@H]1CCC(=O)C[C@@H]21 as the molecule, how does the GHS category read?
A: 4

Q: Which GHS category does the source give for CC(C)(c1cc(Br)c(O)c(Br)c1)c1cc(Br)c(O)c(Br)c1 here?
A: 5

Q: With Cc1ccc(C(=O)Nc2ccc(S(=O)(=O)O)cc2)cc1[N+](=O)[O-] as the molecule, how does the GHS category read?
A: 5

Q: For c1cnn(-c2cc(-n3cccn3)ncn2)c1, which GHS category is on record?
A: 5

Q: With CCC1OC(=O)C(C)C(OC2CC(C)(OC)C(O)C(C)O2)C(C)C(OC2OC(C)CC(N(C)C)C2O)C(C)(O)CC(C)(F)C(=O)C(C)C(O)C1(C)O (configuration not stated) as the molecule, how does the GHS category read?
A: 5

Q: With Nc1nc(C2CC2)nc(C(=O)O)c1Cl as the molecule, how does the GHS category read?
A: 5

Q: With Cc1cc2cc3c(C)cc(=O)oc3c(C)c2o1 as the molecule, how does the GHS category read?
A: 5

Q: Which GHS category does the source give for CCCCCCCCCCCCCCCCOC(=O)Oc1c(Cl)cc(C(=O)OCC)cc1Cl here?
A: 5

Q: With CCCC(CCC)C(=O)Oc1cc(C(C)C)ccc1C as the molecule, how does the GHS category read?
A: 5

Q: Which GHS category does the source give for CCCCCCCCCCCCCCCC here?
A: 5

Q: For CCCCCCCCCCCCCCCC(=O)OC[C@H](O)[C@H]1OC(=O)C(O)=C1O, which GHS category is on record?
A: 5

Q: For CCCCCOC(=O)CCCC, which GHS category is on record?
A: 5

Q: For CC(C)CCCCCCCCOCCCNCCC#N, which GHS category is on record?
A: 5

Q: With CCCCCCCOc1ccc(-c2ccc(C#N)cc2)cc1 as the molecule, how does the GHS category read?
A: 5

Q: With COC(=O)c1ccc(CNS(C)(=O)=O)cc1S(=O)(=O)NC(=O)Nc1nc(OC)cc(OC)n1 as the molecule, how does the GHS category read?
A: 5

Q: Which GHS category does the source give for COc1cc(OC)nc(NC(=O)NS(=O)(=O)c2ncccc2C(=O)N(C)C)n1 here?
A: 5

Q: For CCOC(=O)C(C)(C)Br, which GHS category is on record?
A: 5

Q: With CCCC(=O)CC(=O)OCC as the molecule, how does the GHS category read?
A: 4

Q: Which GHS category does the source give for CC12CCC3c4ccc(OC(=O)c5ccccc5)cc4CCC3C1CCC2OC(=O)COC(=O)CCCc1ccc(N(CCCl)CCCl)cc1 (configuration not stated) here?
A: 5

Q: For O=C(O)CCCCC(=O)O, which GHS category is on record?
A: 5

Q: Which GHS category does the source give for C=CCCCC(C)C here?
A: 5

Q: With N#Cc1c[nH]cc1-c1cccc2c1OC(F)(F)O2 as the molecule, how does the GHS category read?
A: 5

Q: With CC1CC(OC(=O)C(Oc2ccc(Cl)cc2)C(C)C)CC(C)(C)C1 (configuration not stated) as the molecule, how does the GHS category read?
A: 5

Q: Which GHS category does the source give for COc1cc2c(cc1OC)-c1c(C)c3ccc(OC)c(OC)c3c[n+]1CC2 here?
A: 4

Q: For CC#Cc1cc(C)nc(Nc2ccccc2)n1, which GHS category is on record?
A: 5

Q: For CN1CCN(C(=S)SSC(=S)N2CCN(C)CC2)CC1, which GHS category is on record?
A: 5

Q: With c1ccc2oc(C3(Cn4ccnc4)OCCO3)cc2c1 as the molecule, how does the GHS category read?
A: 4

Q: For CCN(CC)CCNC(C(=O)OCCC(C)C)c1ccccc1 (configuration not stated), which GHS category is on record?
A: 4

Q: For CCCCCCCCCCCCCCOc1ccc(C(=O)O)o1, which GHS category is on record?
A: 5
